Ends that are not written are not given here.
Experiments:
[1] = Electronic tongue analysis (Taste-Sensing System SA 402B); design: unit not given here; conditions: reference solution 30 mM KCl + 0.3 mM tartaric acid as baseline, first measurement excluded; for Umami: sensor AAE; for Umami / Bitter / Sweet: detection threshold 0, room temperature; for Umami / Bitter / Sour / Salty: four replicates; for Sour: detection threshold -13, room temperature; for Salty: detection threshold -6, room temperature; for Sweet: measured five times
Summary of the method: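 Room-temperature electronic-tongue readings with five taste probes, calibrated against a reference of 30 mM KCl and 0.3 mM tartaric acid. Samples at 0.1 mg/mL and 1.0 mg/mL were measured four times, sweetness five times, and the first run was dropped. Detection cut-offs were sour −13, salty −6, others 0.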

[2] = tested on: human bronchial epithelial cells (BEAS-2B)
[3] = tested on: human embryonic kidney cells (HEK293T)
[4] = tested on: human pancreatic ductal epithelial cells (HPNE)
Experimental: (§1) The cytotoxicity of 73 synthetic peptides was evaluated using four human cell lines: human pancreatic ductal epithelial cells (HPNE), human embryonic kidney cells (HEK293T), human umbilical vein endothelial cells (HUVEC), and human bronchial epithelial cells (BEAS-2B). When cell density reached 70% confluence, the complete culture medium was replaced with serum-free maintenance medium, and peptides were added at a final concentration of 100 μM for 36 h. Control groups received only serum-free maintenance medium without peptides. Cell proliferation was assessed using the CCK-8 assay kit (Solarbio, CA1210) according to the manufacturer’s instructions.

[5] = tested on: human umbilical vein endothelial cells (HUVEC)
Experimental: as §1

VAEDLL [TaPep8]
Umami ([1]; peptide 0.1 mg/mL): 2.66
Umami ([1]; peptide 1 mg/mL): -4.08
Bitter ([1]; sensor C00, peptide 0.1 mg/mL): 7.50
Bitter ([1]; sensor C00, peptide 1 mg/mL): 1.63
Sour ([1]; sensor CA0, peptide 0.1 mg/mL): -5.63
Sour ([1]; sensor CA0, peptide 1 mg/mL): 8.25
Salty ([1]; sensor CT0, peptide 0.1 mg/mL): -22.00
Salty ([1]; sensor CT0, peptide 1 mg/mL): 7.96
Sweet ([1]; sensor GL1, peptide 0.1 mg/mL): 9.31
Sweet ([1]; sensor GL1, peptide 1 mg/mL): -4.65
Average cell viability, BEAS-2B [2]: 103.39
Cell viability, BEAS-2B, Data1 [2]: 114.76
Cell viability, BEAS-2B, Data2 [2]: 90.53
Cell viability, BEAS-2B, Data3 [2]: 104.89
Average cell viability, HEK293T [3]: 101.07
Cell viability, HEK293T, Data1 [3]: 102.68
Cell viability, HEK293T, Data2 [3]: 95.30
Cell viability, HEK293T, Data3 [3]: 105.24
Average cell viability, HPNE [4]: 106.12
Cell viability, HPNE, Data1 [4]: 109.62
Cell viability, HPNE, Data2 [4]: 99.23
Cell viability, HPNE, Data3 [4]: 109.52
Average cell viability, HUVEC [5]: 103.81
Cell viability, HUVEC, Data1 [5]: 109.13
Cell viability, HUVEC, Data2 [5]: 93.96
Cell viability, HUVEC, Data3 [5]: 108.33

SAANT [TaPep31]
Umami ([1]; peptide 0.1 mg/mL): 1.69
Umami ([1]; peptide 1 mg/mL): -4.82
Bitter ([1]; sensor C00, peptide 0.1 mg/mL): 7.84
Bitter ([1]; sensor C00, peptide 1 mg/mL): 2.76
Sour ([1]; sensor CA0, peptide 0.1 mg/mL): -3.49
Sour ([1]; sensor CA0, peptide 1 mg/mL): 12.70
Salty ([1]; sensor CT0, peptide 0.1 mg/mL): -19.57
Salty ([1]; sensor CT0, peptide 1 mg/mL): 12.57
Sweet ([1]; sensor GL1, peptide 0.1 mg/mL): 8.41
Sweet ([1]; sensor GL1, peptide 1 mg/mL): -5.90
Average cell viability, BEAS-2B [2]: 110.70
Cell viability, BEAS-2B, Data1 [2]: 118.64
Cell viability, BEAS-2B, Data2 [2]: 100.10
Cell viability, BEAS-2B, Data3 [2]: 113.36
Average cell viability, HEK293T [3]: 99.34
Cell viability, HEK293T, Data1 [3]: 102.02
Cell viability, HEK293T, Data2 [3]: 100.41
Cell viability, HEK293T, Data3 [3]: 95.58
Average cell viability, HPNE [4]: 100.40
Cell viability, HPNE, Data1 [4]: 105.82
Cell viability, HPNE, Data2 [4]: 112.81
Cell viability, HPNE, Data3 [4]: 82.56
Average cell viability, HUVEC [5]: 99.39
Cell viability, HUVEC, Data1 [5]: 91.56
Cell viability, HUVEC, Data2 [5]: 100.67
Cell viability, HUVEC, Data3 [5]: 105.93

SKKEV [TaPep65]
Umami ([1]; peptide 0.1 mg/mL): 1.85
Umami ([1]; peptide 1 mg/mL): -4.04
Bitter ([1]; sensor C00, peptide 0.1 mg/mL): 7.27
Bitter ([1]; sensor C00, peptide 1 mg/mL): 4.02
Sour ([1]; sensor CA0, peptide 0.1 mg/mL): -3.95
Sour ([1]; sensor CA0, peptide 1 mg/mL): 10.48
Salty ([1]; sensor CT0, peptide 0.1 mg/mL): -17.33
Salty ([1]; sensor CT0, peptide 1 mg/mL): 11.34
Sweet ([1]; sensor GL1, peptide 0.1 mg/mL): 2.66
Sweet ([1]; sensor GL1, peptide 1 mg/mL): -3.79
Average cell viability, BEAS-2B [2]: 100.70
Cell viability, BEAS-2B, Data1 [2]: 99.80
Cell viability, BEAS-2B, Data2 [2]: 89.83
Cell viability, BEAS-2B, Data3 [2]: 112.46
Average cell viability, HEK293T [3]: 97.48
Cell viability, HEK293T, Data1 [3]: 94.54
Cell viability, HEK293T, Data2 [3]: 99.27
Cell viability, HEK293T, Data3 [3]: 98.61
Average cell viability, HPNE [4]: 94.98
Cell viability, HPNE, Data1 [4]: 94.04
Cell viability, HPNE, Data2 [4]: 105.12
Cell viability, HPNE, Data3 [4]: 85.76
Average cell viability, HUVEC [5]: 96.89
Cell viability, HUVEC, Data1 [5]: 105.14
Cell viability, HUVEC, Data2 [5]: 94.76
Cell viability, HUVEC, Data3 [5]: 90.77

VARLEA [TaPep9]
Umami ([1]; peptide 0.1 mg/mL): 2.67
Umami ([1]; peptide 1 mg/mL): -2.73
Bitter ([1]; sensor C00, peptide 0.1 mg/mL): 7.95
Bitter ([1]; sensor C00, peptide 1 mg/mL): 2.75
Sour ([1]; sensor CA0, peptide 0.1 mg/mL): -6.31
Sour ([1]; sensor CA0, peptide 1 mg/mL): 8.17
Salty ([1]; sensor CT0, peptide 0.1 mg/mL): -18.92
Salty ([1]; sensor CT0, peptide 1 mg/mL): 12.49
Sweet ([1]; sensor GL1, peptide 0.1 mg/mL): 8.92
Sweet ([1]; sensor GL1, peptide 1 mg/mL): -4.48
Average cell viability, BEAS-2B [2]: 112.30
Cell viability, BEAS-2B, Data1 [2]: 110.77
Cell viability, BEAS-2B, Data2 [2]: 115.45
Cell viability, BEAS-2B, Data3 [2]: 110.67
Average cell viability, HEK293T [3]: 105.62
Cell viability, HEK293T, Data1 [3]: 103.06
Cell viability, HEK293T, Data2 [3]: 112.15
Cell viability, HEK293T, Data3 [3]: 101.64
Average cell viability, HPNE [4]: 104.39
Cell viability, HPNE, Data1 [4]: 117.30
Cell viability, HPNE, Data2 [4]: 93.74
Cell viability, HPNE, Data3 [4]: 102.13
Average cell viability, HUVEC [5]: 96.43
Cell viability, HUVEC, Data1 [5]: 97.15
Cell viability, HUVEC, Data2 [5]: 102.50
Cell viability, HUVEC, Data3 [5]: 89.65

DQKVLA [TaPep3]
Umami ([1]; peptide 0.1 mg/mL): 2.16
Umami ([1]; peptide 1 mg/mL): -4.90
Bitter ([1]; sensor C00, peptide 0.1 mg/mL): 7.84
Bitter ([1]; sensor C00, peptide 1 mg/mL): 2.95
Sour ([1]; sensor CA0, peptide 0.1 mg/mL): -4.64
Sour ([1]; sensor CA0, peptide 1 mg/mL): 12.21
Salty ([1]; sensor CT0, peptide 0.1 mg/mL): -20.13
Salty ([1]; sensor CT0, peptide 1 mg/mL): 13.20
Sweet ([1]; sensor GL1, peptide 0.1 mg/mL): 7.95
Sweet ([1]; sensor GL1, peptide 1 mg/mL): -6.65
Average cell viability, BEAS-2B [2]: 108.77
Cell viability, BEAS-2B, Data1 [2]: 109.77
Cell viability, BEAS-2B, Data2 [2]: 102.49
Cell viability, BEAS-2B, Data3 [2]: 114.06
Average cell viability, HEK293T [3]: 94.20
Cell viability, HEK293T, Data1 [3]: 93.79
Cell viability, HEK293T, Data2 [3]: 84.04
Cell viability, HEK293T, Data3 [3]: 104.76
Average cell viability, HPNE [4]: 93.24
Cell viability, HPNE, Data1 [4]: 97.04
Cell viability, HPNE, Data2 [4]: 98.74
Cell viability, HPNE, Data3 [4]: 83.96
Average cell viability, HUVEC [5]: 98.83
Cell viability, HUVEC, Data1 [5]: 114.40
Cell viability, HUVEC, Data2 [5]: 89.41
Cell viability, HUVEC, Data3 [5]: 92.68

From PMC12543283, “TastepepAI: An artificial intelligence platform for taste peptide de novo design” (PLOS Computational Biology, 2025)
